Assay results taken from ChEMBL document CHEMBL4411260, “Dual Inhibition of TYK2 and JAK1 for the Treatment of Autoimmune Diseases: Discovery of (( S)-2,2-Difluorocyclopropyl)((1 R,5 S)-3-(2-((1-methyl-1 H-pyrazol-4-yl)amino)pyrimidin-4-yl)-3,8-diazabicyclo[3.2.1]octan-8-yl)methanone (PF-06700841)” (J Med Chem, 2018).

How the values were obtained:
[1] = biological target: T1, Tyrosine-protein kinase JAK3 (Homo sapiens, UniProt P52333); assay: Inhibition of human JAK3 using fluorescence labeled peptide as substrate and using ATP at its Km level by microfluidic based mobility shift assay
T1 sequence (P52333 whole entry): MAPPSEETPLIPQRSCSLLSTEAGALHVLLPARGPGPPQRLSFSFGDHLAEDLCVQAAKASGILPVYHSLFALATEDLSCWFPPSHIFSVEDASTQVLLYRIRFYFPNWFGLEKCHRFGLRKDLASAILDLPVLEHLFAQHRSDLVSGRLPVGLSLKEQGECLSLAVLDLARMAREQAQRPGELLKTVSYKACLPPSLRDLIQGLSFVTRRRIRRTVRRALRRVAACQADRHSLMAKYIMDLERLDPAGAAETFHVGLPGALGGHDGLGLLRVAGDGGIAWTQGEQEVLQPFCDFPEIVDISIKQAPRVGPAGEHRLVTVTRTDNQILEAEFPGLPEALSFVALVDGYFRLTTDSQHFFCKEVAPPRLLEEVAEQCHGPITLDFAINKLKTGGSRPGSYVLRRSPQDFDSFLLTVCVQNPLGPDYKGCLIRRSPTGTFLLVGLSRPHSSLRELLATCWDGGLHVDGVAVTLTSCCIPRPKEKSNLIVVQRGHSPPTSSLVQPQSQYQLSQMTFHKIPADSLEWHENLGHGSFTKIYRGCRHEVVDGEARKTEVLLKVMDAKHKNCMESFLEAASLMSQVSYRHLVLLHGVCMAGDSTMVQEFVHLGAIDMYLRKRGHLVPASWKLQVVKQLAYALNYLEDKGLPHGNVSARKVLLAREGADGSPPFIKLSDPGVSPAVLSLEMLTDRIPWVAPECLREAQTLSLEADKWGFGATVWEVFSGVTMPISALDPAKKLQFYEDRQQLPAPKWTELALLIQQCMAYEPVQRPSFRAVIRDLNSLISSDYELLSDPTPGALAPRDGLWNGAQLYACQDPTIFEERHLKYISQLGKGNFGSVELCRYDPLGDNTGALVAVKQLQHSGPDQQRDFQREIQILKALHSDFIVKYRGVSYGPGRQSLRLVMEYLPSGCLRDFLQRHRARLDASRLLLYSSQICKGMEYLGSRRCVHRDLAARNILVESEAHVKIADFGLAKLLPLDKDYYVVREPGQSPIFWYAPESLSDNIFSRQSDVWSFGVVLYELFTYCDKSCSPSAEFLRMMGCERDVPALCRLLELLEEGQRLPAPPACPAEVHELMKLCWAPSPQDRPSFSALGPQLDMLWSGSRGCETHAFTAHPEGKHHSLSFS

[2] = biological target: T2, Non-receptor tyrosine-protein kinase TYK2 (Homo sapiens, UniProt P29597); assay: Inhibition of human TYK2 using fluorescence labeled peptide as substrate and using ATP at its Km level by microfluidic based mobility shift assay
[3] = physchem; details: octanol/water phosphate buffer, pH 7.4
[4] = biological target: T3, Tyrosine-protein kinase JAK2 (Homo sapiens, UniProt O60674); assay: Inhibition of human JAK2 using fluorescence labeled peptide as substrate and using ATP at its Km level by microfluidic based mobility shift assay
[5] = biological target: T4, Tyrosine-protein kinase JAK1 (Homo sapiens, UniProt P23458); assay: Inhibition of human JAK1 using fluorescence labeled peptide as substrate and using ATP at its Km level by microfluidic based mobility shift assay
[6] = biological target: T1, Tyrosine-protein kinase JAK3
[7] = biological target: T3, Tyrosine-protein kinase JAK2
[8] = biological target: T2, Non-receptor tyrosine-protein kinase TYK2
[9] = biological target: T4, Tyrosine-protein kinase JAK1
[10] = biological target: T5, JAK1/TYK2 (Homo sapiens, UniProt P23458+P29597); assay: Inhibition of JAK1/TYK2 signaling pathway in human lymphocytes of whole blood assessed as reduction in IFN-alpha induced STAT3 phosphorylation preincubated for 45 mins followed by IFN-alpha addition and measured measured after 15 mins by FACS assay; type: cell-based
[11] = Passive apparent permeability from apical to basolateral side in RRCK cells; type: ADME, cell-based, Canis lupus familiaris, MDCKII-LE; details: dog, MDCK
[12] = biological target: T3, Tyrosine-protein kinase JAK2; remark: listed apart in the source
[13] = biological target: T5, JAK1/TYK2
[14] = biological target: T3, Tyrosine-protein kinase JAK2; remark: listed apart in the source

T2 sequence (P29597 whole entry): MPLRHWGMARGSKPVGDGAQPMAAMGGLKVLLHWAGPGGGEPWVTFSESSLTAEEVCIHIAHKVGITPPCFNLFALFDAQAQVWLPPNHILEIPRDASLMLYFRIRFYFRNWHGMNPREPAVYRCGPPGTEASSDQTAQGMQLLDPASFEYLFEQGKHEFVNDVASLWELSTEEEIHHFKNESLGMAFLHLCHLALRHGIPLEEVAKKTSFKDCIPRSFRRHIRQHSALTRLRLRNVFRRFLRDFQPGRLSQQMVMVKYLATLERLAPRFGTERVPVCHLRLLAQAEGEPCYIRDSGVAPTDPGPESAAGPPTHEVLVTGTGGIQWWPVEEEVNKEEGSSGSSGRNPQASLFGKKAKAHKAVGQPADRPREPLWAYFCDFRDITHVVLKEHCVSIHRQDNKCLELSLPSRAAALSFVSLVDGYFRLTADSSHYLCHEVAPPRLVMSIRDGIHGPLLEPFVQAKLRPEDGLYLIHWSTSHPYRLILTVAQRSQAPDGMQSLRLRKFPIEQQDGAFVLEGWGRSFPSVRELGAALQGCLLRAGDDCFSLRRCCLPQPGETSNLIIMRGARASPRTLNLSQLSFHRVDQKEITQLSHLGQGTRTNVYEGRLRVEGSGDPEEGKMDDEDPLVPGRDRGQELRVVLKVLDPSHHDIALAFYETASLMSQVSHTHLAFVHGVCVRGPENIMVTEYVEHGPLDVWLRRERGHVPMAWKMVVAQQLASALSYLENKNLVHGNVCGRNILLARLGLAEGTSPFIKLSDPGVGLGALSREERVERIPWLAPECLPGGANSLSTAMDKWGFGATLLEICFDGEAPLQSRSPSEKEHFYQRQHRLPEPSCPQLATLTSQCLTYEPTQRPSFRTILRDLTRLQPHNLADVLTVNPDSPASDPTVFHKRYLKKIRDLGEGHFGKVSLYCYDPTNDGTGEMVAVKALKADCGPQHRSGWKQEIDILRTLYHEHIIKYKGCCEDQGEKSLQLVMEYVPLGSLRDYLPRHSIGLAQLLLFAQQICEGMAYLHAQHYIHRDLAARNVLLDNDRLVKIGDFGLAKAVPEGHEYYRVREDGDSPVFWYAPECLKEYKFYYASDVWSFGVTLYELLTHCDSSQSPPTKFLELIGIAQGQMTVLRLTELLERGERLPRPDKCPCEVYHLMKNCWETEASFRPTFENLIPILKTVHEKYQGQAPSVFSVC
T3 sequence (O60674 whole entry): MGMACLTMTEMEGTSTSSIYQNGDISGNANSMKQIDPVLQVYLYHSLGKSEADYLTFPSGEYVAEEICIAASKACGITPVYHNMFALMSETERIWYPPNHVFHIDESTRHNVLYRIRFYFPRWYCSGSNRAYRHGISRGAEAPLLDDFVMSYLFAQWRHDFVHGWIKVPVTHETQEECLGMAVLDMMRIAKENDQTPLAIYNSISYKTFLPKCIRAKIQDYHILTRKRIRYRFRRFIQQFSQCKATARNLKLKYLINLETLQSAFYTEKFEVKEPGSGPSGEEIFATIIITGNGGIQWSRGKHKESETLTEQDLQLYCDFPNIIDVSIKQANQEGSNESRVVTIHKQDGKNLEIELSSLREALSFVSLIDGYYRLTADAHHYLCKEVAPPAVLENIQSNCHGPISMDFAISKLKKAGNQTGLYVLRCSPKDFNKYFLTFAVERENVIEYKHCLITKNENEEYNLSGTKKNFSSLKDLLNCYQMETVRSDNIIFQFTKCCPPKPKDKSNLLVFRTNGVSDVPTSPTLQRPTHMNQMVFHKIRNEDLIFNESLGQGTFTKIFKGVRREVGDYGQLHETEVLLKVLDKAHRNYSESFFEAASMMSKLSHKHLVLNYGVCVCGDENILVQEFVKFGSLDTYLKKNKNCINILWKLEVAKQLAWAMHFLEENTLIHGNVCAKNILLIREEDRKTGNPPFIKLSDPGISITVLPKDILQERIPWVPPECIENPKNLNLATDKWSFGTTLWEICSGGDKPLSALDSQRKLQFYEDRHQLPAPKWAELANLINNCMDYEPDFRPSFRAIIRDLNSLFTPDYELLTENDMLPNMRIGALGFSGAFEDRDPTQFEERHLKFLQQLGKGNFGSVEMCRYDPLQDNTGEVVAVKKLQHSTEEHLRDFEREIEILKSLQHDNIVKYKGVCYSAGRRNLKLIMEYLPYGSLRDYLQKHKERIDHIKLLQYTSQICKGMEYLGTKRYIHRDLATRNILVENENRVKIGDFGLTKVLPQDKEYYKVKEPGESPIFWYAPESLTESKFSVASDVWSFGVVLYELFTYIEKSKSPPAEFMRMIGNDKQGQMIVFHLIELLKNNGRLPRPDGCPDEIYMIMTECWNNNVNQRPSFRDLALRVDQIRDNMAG
T5 sequence (P23458 whole entry): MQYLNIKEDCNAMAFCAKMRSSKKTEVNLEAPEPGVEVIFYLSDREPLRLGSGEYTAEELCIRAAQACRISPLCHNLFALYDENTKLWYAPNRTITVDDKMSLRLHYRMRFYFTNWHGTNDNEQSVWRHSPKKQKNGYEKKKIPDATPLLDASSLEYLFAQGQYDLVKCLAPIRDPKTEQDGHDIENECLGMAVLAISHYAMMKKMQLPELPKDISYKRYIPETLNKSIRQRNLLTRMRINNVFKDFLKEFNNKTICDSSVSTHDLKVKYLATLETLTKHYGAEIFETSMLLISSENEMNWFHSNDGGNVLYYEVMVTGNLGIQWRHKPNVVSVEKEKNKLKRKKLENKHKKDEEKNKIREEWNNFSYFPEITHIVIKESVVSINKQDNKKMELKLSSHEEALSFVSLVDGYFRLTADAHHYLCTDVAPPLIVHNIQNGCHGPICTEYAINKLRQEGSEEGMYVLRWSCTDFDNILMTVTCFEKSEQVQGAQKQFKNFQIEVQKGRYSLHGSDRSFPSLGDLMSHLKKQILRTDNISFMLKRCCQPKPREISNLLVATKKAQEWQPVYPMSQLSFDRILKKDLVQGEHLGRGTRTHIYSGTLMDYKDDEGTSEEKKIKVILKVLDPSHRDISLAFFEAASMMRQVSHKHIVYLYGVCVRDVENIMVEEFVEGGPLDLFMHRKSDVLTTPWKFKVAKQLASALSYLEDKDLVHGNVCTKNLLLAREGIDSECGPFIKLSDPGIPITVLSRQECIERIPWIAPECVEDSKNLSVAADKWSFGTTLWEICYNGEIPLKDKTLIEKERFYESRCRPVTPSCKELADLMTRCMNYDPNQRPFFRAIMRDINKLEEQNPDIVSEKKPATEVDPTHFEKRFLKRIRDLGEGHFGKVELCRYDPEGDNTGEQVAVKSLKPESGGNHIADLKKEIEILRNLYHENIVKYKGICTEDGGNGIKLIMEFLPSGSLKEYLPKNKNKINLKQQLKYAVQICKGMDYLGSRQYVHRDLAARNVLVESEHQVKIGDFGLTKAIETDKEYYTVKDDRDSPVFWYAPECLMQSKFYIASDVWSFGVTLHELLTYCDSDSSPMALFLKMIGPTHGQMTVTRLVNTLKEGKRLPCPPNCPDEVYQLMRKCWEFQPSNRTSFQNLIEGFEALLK
T5 sequence (P29597 whole entry): as the sequence (P29597 whole entry) above
T4 sequence (P23458 whole entry): as the sequence (P23458 whole entry) above

Row | logD [3] | IC50 [6] [nM] | IC50 [7] [nM] | IC50 [8] [nM] | IC50 [9] [nM] | fIC50 [13] [nM] | fIC50 [14] [nM] | SMILES | other results
1 | 0.9 |  |  |  |  |  |  | CCNC(=O)c1ccc(Nc2nccc(N3C[C@H]4C[C@@H]3CN4C(=O)CC#N)n2)cc1 | IC50 [1]: > 10000 nM; IC50 [2]: 2690 nM; IC50 [4]: > 4220 nM; IC50 [5]: 7180 nM
2 |  |  |  |  |  |  |  | CCNC(=O)c1ccc(Nc2nccc(N3CCN(C(=O)CC#N)CC3)n2)cc1 | IC50 [1]: 8740 nM; IC50 [2]: 368 nM; IC50 [4]: 1080 nM; IC50 [5]: 3060 nM
3 | 2.16 | > 10000 | 2780 | 148 | 748 |  |  | CCNC(=O)c1ccc(Nc2nccc(N3C[C@@H]4CC[C@H]3CN4C(=O)C3CC3)n2)cc1 | 
4 | 0.9 | > 10000 | > 9970 | 774 | 3710 |  |  | CCNC(=O)c1ccc(Nc2nccc(N3C[C@@H]4C[C@H]3CN4C(=O)CC#N)n2)cc1 | IC50 [1]: > 4950 nM; IC50 [2]: 23 nM; IC50 [4]: 366 nM; IC50 [5]: 358 nM
5 | 2.15 |  |  |  |  |  |  | CCNC(=O)c1ccc(Nc2nccc(N3C[C@H]4C[C@@H](C3)N4C(=O)C3CC3)n2)cc1 | 
6 | 1.96 | > 10000 | > 10000 | 1740 | > 9520 |  |  | CCNC(=O)c1ccc(Nc2nccc(N3C[C@@H]4C[C@H]3CN4C(=O)C3CC3)n2)cc1 | 
7 | 3.21 | 4960 | 692 | 48 | 234 | 91 | 11 | CCNC(=O)c1ncc(Nc2ncc(F)c(N3CC4CC[C@H](C3)N4C(=O)C3CC3)n2)cc1C (single isomer, unassigned) | IC50 [10]: 385 nM; Papp A→B [11]: 5.6 to 18.8 ×10⁻⁶ cm/s; IC50 [12]: 12200 nM
8 | 2.71 | > 10000 | > 10000 | 7200 | > 10000 |  |  | CCNC(=O)c1ccc(Nc2ncc(F)c(N3CC4CC[C@H](C3)N4C(=O)C3CC3)n2)nc1 (single isomer, unassigned) | Papp A→B [11]: 5.6 to 18.8 ×10⁻⁶ cm/s
9 | 1.55 |  |  |  |  |  |  | Cn1cc(Nc2nccc(N3CC4CC[C@H](C3)N4C(=O)[C@H]3CC3(F)F)n2)cn1 (single isomer, unassigned) | 
10 | 1.44 |  |  |  |  | 60 | 14 | CCNC(=O)N1C2CC[C@@H]1CN(c1ccnc(Nc3cnn(C)c3)n1)C2 (single isomer, unassigned) | 
11 | 0.97 |  |  |  |  | 73 | 28 | Cn1cc(Nc2nccc(N3CC4CC[C@H](C3)N4C(=O)NCC#N)n2)cn1 (single isomer, unassigned) | Papp A→B [11]: 0.6 ×10⁻⁶ cm/s
12 | 1.72 | 6870 | 146 | 28 | 14 | 26 | 15 | Cn1cc(Nc2nccc(N3CC4CC[C@H](C3)N4C(=O)NCC(F)(F)F)n2)cn1 (single isomer, unassigned) | IC50 [10]: 51 nM; IC50 [12]: 1160 nM
13 | 1.78 |  |  |  |  | 70 | 10 | O=C(C1CC1)N1C2CC[C@@H]1CN(c1nc(Nc3cnn(CCO)c3)ncc1F)C2 (single isomer, unassigned) | Papp A→B [11]: 5.6 to 18.8 ×10⁻⁶ cm/s
14 | 2.88 |  |  |  |  |  |  | CCNC(=O)c1ccc(Nc2ncc(F)c(N3CC4CC[C@H](C3)N4C(=O)C3CC3)n2)cc1 (single isomer, unassigned) | 
15 | 1.52 |  |  |  |  | 91 | 11 | Cn1cc(Nc2nccc(N3CC4CC[C@H](C3)N4C(=O)C3CC3)n2)cn1 (single isomer, unassigned) | 
16 | 2.13 | 2880 | 488 | 53 | 76 | 84 | 8 | Cn1cc(Nc2ncc(F)c(N3CC4CC[C@H](C3)N4C(=O)C3CC3)n2)cn1 (single isomer, unassigned) | IC50 [10]: 144 nM; Papp A→B [11]: 5.6 to 18.8 ×10⁻⁶ cm/s; IC50 [12]: 6280 nM
17 | 1.86 |  |  |  |  |  |  | CCNC(=O)c1ccc(Nc2nccc(N3CC4CC[C@H](C3)N4C(=O)C3CC3)n2)cc1 (single isomer, unassigned) | 
